{"source": "patent US5352451A", "about": "“Biological insect control agents and methods of use” (priority 1991, dated 1994)"}
{"molecular_target": "T1, EGT (Autographa californica nuclear polyhedrosis virus, UniProt P18569)", "T1 construct": "extracellular medium from wt-AcMNPV infected cells containing significant egt activity; endogenous in cells; host or cells: Spodoptera frugiperda IPLB-SF-21 (SF) cells infected with wild-type AcMNPV; extracellular medium used unpurified; EGT made from the virus's own gene", "T1 sequence (P18569 19-506)": "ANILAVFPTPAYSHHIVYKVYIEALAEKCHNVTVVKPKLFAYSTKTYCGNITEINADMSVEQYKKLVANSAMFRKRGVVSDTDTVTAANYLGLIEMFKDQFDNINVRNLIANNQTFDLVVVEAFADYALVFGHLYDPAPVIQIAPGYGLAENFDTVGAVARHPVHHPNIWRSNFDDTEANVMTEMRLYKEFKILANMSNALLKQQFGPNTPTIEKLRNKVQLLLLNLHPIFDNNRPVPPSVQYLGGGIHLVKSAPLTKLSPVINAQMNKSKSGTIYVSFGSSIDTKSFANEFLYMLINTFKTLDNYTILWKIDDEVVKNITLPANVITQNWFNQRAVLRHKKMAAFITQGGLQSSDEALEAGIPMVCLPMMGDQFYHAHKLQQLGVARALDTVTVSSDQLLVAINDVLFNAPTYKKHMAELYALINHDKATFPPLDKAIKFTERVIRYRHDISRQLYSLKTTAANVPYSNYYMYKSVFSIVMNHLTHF", "assay_type": "biochemical", "details": "substrate 1 mM; extracellular medium from wt-AcMNPV infected cells; 0.05 μCi UDP-[U-14C]glucose", "procedure": "Experiments are then performed to more thoroughly investigate the substrate specificity of EGT. In these experiments various substrates (1 mM) are incubated in the presence of extracellular medium from wt-AcMNPV infected cells containing significant egt activity. As controls to ensure that any conjugation observed is due to EGT, each substrate is also incubated with media from uninfected and vEGTZ-infected cells, which cannot produce EGT. 0.05 μCi UDP-[U-^14 C]glucose are added to each reaction. Any compounds which function as substrates for EGT will be conjugated with glucose; they can be detected because the glucose is radioactively labeled.\nSubstrates are incubated in the presence of medium derived from\nappropriately infected cells and 0.05 μCi UDP[U-^14 C]glucose.\nAmounts of glucose transferred are calculated after scintillation countin\nof the appropriate regions of the chromatography plates.\nThe only substrates identified are ecdysone, 20-hydroxyecdysone and makisterone A, all of which are ecdysteriods. No conjugation is observed using medium from mock- or vEGTZ-infected cells, confirming that the activity observed is due to expression of egt.", "units": {"wild type (pmol Glucose transferred)": "pmol"}}
{"compound": "CC(C)(O)CCC(O)C(C)(O)C1CCC2(O)C3=CC(=O)C4CC(O)C(O)CC4(C)C3CCC12C", "note": "(stereo not drawn) [20-Hydroxyecdysone]", "wild type (pmol Glucose transferred)": 87.8}
{"compound": "C[C@H]([C@H](O)CCC(C)(C)O)[C@H]1CC[C@@]2(O)C3=CC(=O)[C@@H]4C[C@@H](O)[C@@H](O)C[C@]4(C)[C@H]3CC[C@]12C", "note": "[Ecdysone]", "wild type (pmol Glucose transferred)": 155.7}
{"compound": "CC(CC(O)C(C)(O)C1CCC2(O)C3=CC(=O)C4CC(O)C(O)CC4(C)C3CCC12C)C(C)(C)O", "note": "(stereo not drawn) [Makisterone A]", "wild type (pmol Glucose transferred)": 89.6}
